Laboratory results from US8765679B2, “Extract and peptides derived from Oryza sativa Japonica Group and uses thereof” (Yissum Research Development Company of The Hebrew …, priority 2010, dated 2014).
Entries after “also recorded” stand apart in the source; their conditions may differ.

Assays:
EAE mice = assay: Experimental autoimmune encephalitis (EAE) induced with MOG peptide 35-55, neurological score; type: in vivo, Female C57BL/6 mice; conditions: for neurological score / neurological symptoms: oral 100 μg/kg, FIG. 2C, FIG. 3
[1] = test system: mouse peritoneal macrophages; assay: Oxidative burst of PMA-activated peritoneal macrophages (luminescence); type: cell-based; conditions: for oxidative burst in activated macrophages (luminescence): added 1 minute after PMA, FIG. 6
Protocol: Mice were injected i.p. with thioglycolate. Peritoneal macrophages were obtained and incubated with horse-reddish peroxidase and luminol. The reaction started by the addition of phorbol myristate acetate (PMA) and 1 minute later RA1 was added. Luminescence measurement was started after PMA addition. Each cycle represents 74 seconds.
Mice were injected ip with 1.5 ml thioglycolate (29.8 g/l). Peritoneal macrophages were obtained and incubated (2.5×10^6 cells/ml) in HBSS with 2 μl of 1 mM CoCl2, 2 μl 100 mM Na2SeO3, 2 μl of 10 mM luminal. The reaction started by the addition of 5 μl of 100 μM phorbol myristate acetate (PMA) (final concentration of 2.5 μM) and one minute later RA1 was added. Luminescence measurement was started after PMA addition. Each cycle represents 74 seconds.

[2] = test system: carrageenan-induced hind paw swelling; assay: Carrageenan-induced hind paw swelling; type: in vivo; conditions: 30 minutes prior to carrageenan, FIG. 5
Protocol: RA1 or saline were injected 30 minutes prior to carrageenan injection into the subplantar area. The diameter of the subplantar area was measured every 60 minutes by a micrometer. […] The effect of RA1 was tested in an animal model for inflammation. Inflammation induced by carrageenan, is acute, well-researched, and highly reproducible. Cardinal signs of inflammation edema, hyperalgesia, and erythema develop immediately following subcutaneous injection, resulting from action of proinflammatory agents bradykinin, histamine, tachykinins, complement and reactive oxygen, and nitrogen species. The inflammatory response is usually quantified by increase in paw size (edema). RA1 or its vehicle, i.e., saline, was injected ip 30 minutes prior to carrageenan treatment. Carrageenan (50 μl of 3 mg/ml) was injected into the subplantar area of both limbs of each animal. The diameter of the subplantar area was measured every 60 minutes by a micrometer. The degree of swelling was assessed by the difference between thicknesses measured after and prior to carrageenan injection (zero time).

Murine naïve CD4 cells = assay: Cytokine profile of RA1-treated CD4 cells (ELISA of supernatants); type: cell-based; conditions: anti-CD3/anti-CD28/IL2-activated CD4 cells, supernatants at 72 h
Protocol: Murine lymph nodes and/or spleens were mashed, harvested and single cell suspension was passed through a […] cell strainer and washed. Murine naïve CD4 cells were MACS separated using Miltenyi CD4 beads (Miltenyi Biotec GmbH, Bergisch Gladbach, ermany) according to manufacture instructions. Isolated T cells were seeded and activated with anti-CD3 […] and anti-CD28 […] (BD Biosciences, San Jose, Calif., USA) in the presence of IL2 (10 U/ml), (PeproTech Inc, Rocky Hill, N.J., USA). For cytokine production and RA1 determination supernatants were collected for ELISA. Cytokine analysis was performed in supernatants at 72 h using commercial kits: IFNγ, IL12 and IL4 (Perpotech), IL-17 (R&D systems) and IL10 (BD Biosciences).

experimental model of MS = conditions: intravenous and oral administrations; cited from earlier work
[3] = 3 times a week, starting 7 days after MOG immunization

EMIDLAAKMLSEGRG (ORYZA SATIVA JAPONICA) [RA2]
neurological score (EAE mice; i.p. 1 μg/kg, 3 times a week, starting 7 days after MOG immunization, FIG. 2B, FIG. 4): reduction of the neurological score

AEMIDLAAKMLSEGR (ORYZA SATIVA JAPONICA) [RA3]
neurological score / neurological symptoms (EAE mice; [3]): reduction of the neurological score

AEMIDLAAKMLSEGRG (ORYZA SATIVA JAPONICA) [RA1, 16-mer peptide, amino acid residues 217-232 of Oryza sativa Japonica Group]
oxidative burst in activated macrophages (luminescence) ([1]; 0.1 ng/ml): less effective
oxidative burst in activated macrophages (luminescence) ([1]; 1.0 ng/ml): less effective
oxidative burst in activated macrophages (luminescence) ([1]; 10 ng/ml): strongly inhibited
hydroxyl radical scavenger ([1]; summary statement referring to Example 6): highly effective
neurological score (EAE mice; i.p. 0.1 μg/kg, three times a week, starting seven days after MOG immunization, FIG. 4): an increased effect
neurological score (EAE mice; i.v., once on the day of MOG immunization, FIG. 2A): significantly improved
neurological score / neurological symptoms (EAE mice; [3]): beneficial in reducing the neurological symptoms; also recorded: an increased effect
swelling induced after the carrageenan injection ([2]; one dose 1.0 μg/kg ip): significantly reduced
swelling induced after the carrageenan injection ([2]; one dose 10 μg/kg ip): significantly reduced
IFNγ production (Murine naïve CD4 cells; FIG. 10A): reduction
IL17 production (Murine naïve CD4 cells; FIG. 10B): reduction
IL4 production (Murine naïve CD4 cells; FIG. 10C): elevation
IL10 production (Murine naïve CD4 cells; FIG. 10D): elevation

KGHYAERVG (listed as Homo sapiens) [IIIM1, 9-mer peptide derived from human histone H2A]
neurological symptoms in the diseased mice (experimental model of MS): significantly ameliorated the neurological symptoms

AEMIDLAAKMLSEG (ORYZA SATIVA JAPONICA) [RA4]
neurological score / neurological symptoms (EAE mice; [3]): reduction of the neurological score
